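At the GI50, growth is halved. TGI denotes the concentration required for complete inhibition of growth.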
Tests used:
Assay in all cases: DTP human tumour cell line panel, 384-well format
SK-OV-3 ovarian = tested on: SK-OV-3 ovarian
SK-MEL-5 melanoma = tested on: SK-MEL-5 melanoma
786-0 renal = tested on: 786-0 renal
SR leukemia = tested on: SR leukemia
RPMI-8226 leukemia = tested on: RPMI-8226 leukemia
OVCAR-5 ovarian = tested on: OVCAR-5 ovarian
SN12C renal = tested on: SN12C renal
SNB-75 CNS = tested on: SNB-75 CNS
HCT-15 colon = tested on: HCT-15 colon
NCI/ADR-RES ovarian = tested on: NCI/ADR-RES ovarian
SF-539 CNS = tested on: SF-539 CNS
OVCAR-3 ovarian = tested on: OVCAR-3 ovarian
NCI-H322M lung = tested on: NCI-H322M lung
CCRF-CEM leukemia = tested on: CCRF-CEM leukemia
MALME-3M melanoma = tested on: MALME-3M melanoma
BT-549 breast = tested on: BT-549 breast
SW-620 colon = tested on: SW-620 colon
IGROV1 ovarian = tested on: IGROV1 ovarian
ACHN renal = tested on: ACHN renal
UACC-257 melanoma = tested on: UACC-257 melanoma
NCI-H23 lung = tested on: NCI-H23 lung
M14 melanoma = tested on: M14 melanoma
A498 renal = tested on: A498 renal
HT29 colon = tested on: HT29 colon
HS 578T breast = tested on: HS 578T breast
HOP-92 NSCLC = tested on: HOP-92 NSCLC
UO-31 renal = tested on: UO-31 renal
K-562 leukemia = tested on: K-562 leukemia
EKVX NSCLC = tested on: EKVX NSCLC
OVCAR-8 ovarian = tested on: OVCAR-8 ovarian
MOLT-4 leukemia = tested on: MOLT-4 leukemia
DU-145 prostate = tested on: DU-145 prostate
UACC-62 melanoma = tested on: UACC-62 melanoma
OVCAR-4 ovarian = tested on: OVCAR-4 ovarian
HOP-62 NSCLC = tested on: HOP-62 NSCLC
MCF7 breast = tested on: MCF7 breast
SF-295 CNS = tested on: SF-295 CNS
MDA-MB-468 breast = tested on: MDA-MB-468 breast
RXF 393 renal = tested on: RXF 393 renal
PC-3 prostate = tested on: PC-3 prostate
HCT-116 colon = tested on: HCT-116 colon
MDA-MB-231 breast = tested on: MDA-MB-231 breast
NCI-H460 NSCLC = tested on: NCI-H460 NSCLC
KM12 colon = tested on: KM12 colon
U251 glioblastoma = tested on: U251 glioblastoma
HL-60(TB) leukemia = tested on: HL-60(TB) leukemia
NCI-H522 lung = tested on: NCI-H522 lung

Structure (SMILES): CC(C)(C)C[C@H]1N[C@@H](C(=O)NC2CCC(O)CC2)[C@H](c2cccc(Cl)c2F)[C@@]12C(=O)Nc1cc(Cl)ccc12 (some centres undefined)
- GI50 (SK-OV-3 ovarian): 14.6 µM
- TGI (SK-OV-3 ovarian): 27.9 µM
- GI50 (SK-MEL-5 melanoma): 2.57 µM
- TGI (SK-MEL-5 melanoma): 13.1 µM
- GI50 ([…]-0 renal): 8.2 µM
- TGI (786-0 renal): 21.1 µM
- GI50 (SR leukemia): 0.0271 µM
- TGI (SR leukemia): 0.0996 µM
- GI50 (RPMI-8226 leukemia): 2.35 µM
- TGI (RPMI-8226 leukemia): 4.06 µM
- GI50 (OVCAR-5 ovarian): 13.6 µM
- TGI (OVCAR-5 ovarian): 26.5 µM
- GI50 (SN12C renal): 14 µM
- TGI (SN12C renal): 27.2 µM
- GI50 (SNB-75 CNS): 6.62 µM
- TGI (SNB-75 CNS): 19.2 µM
- GI50 (HCT-15 colon): 10.7 µM
- TGI (HCT-15 colon): 22.9 µM
- GI50 (NCI/ADR-RES ovarian): 17.5 µM
- TGI (NCI/ADR-RES ovarian): 31.4 µM
- GI50 (SF-539 CNS): 8.76 µM
- TGI (SF-539 CNS): 22.3 µM
- GI50 (OVCAR-3 ovarian): 6.74 µM
- TGI (OVCAR-3 ovarian): 19.2 µM
- GI50 (NCI-H322M lung): 17.2 µM
- TGI (NCI-H322M lung): 31.1 µM
- GI50 (CCRF-CEM leukemia): 3.25 µM
- TGI (CCRF-CEM leukemia): 10.6 µM
- GI50 (MALME-3M melanoma): 0.229 µM
- TGI (MALME-3M melanoma): 5.03 µM
- GI50 (BT-549 breast): 10.1 µM
- TGI (BT-549 breast): 23.2 µM
- GI50 (SW-620 colon): 14.7 µM
- TGI (SW-620 colon): 28 µM
- GI50 (IGROV1 ovarian): 6.09 µM
- TGI (IGROV1 ovarian): 20.4 µM
- GI50 (ACHN renal): 0.218 µM
- TGI (ACHN renal): 2.53 µM
- GI50 (UACC-257 melanoma): 0.556 µM
- TGI (UACC-257 melanoma): 2.4 µM
- GI50 (NCI-H23 lung): 10 µM
- TGI (NCI-H23 lung): 22.5 µM
- GI50 (M14 melanoma): 5.59 µM
- TGI (M14 melanoma): 20.3 µM
- GI50 (A498 renal): 0.211 µM
- TGI (A498 renal): 3.41 µM
- GI50 (HT29 colon): 3.65 µM
- TGI (HT29 colon): 13.4 µM
- GI50 (HS 578T breast): 3.21 µM
- TGI (HS 578T breast): 11.9 µM
- GI50 (HOP-92 NSCLC): 8.42 µM
- TGI (HOP-92 NSCLC): 21.4 µM
- GI50 (UO-31 renal): 0.461 µM
- TGI (UO-31 renal): 2.52 µM
- GI50 (K-562 leukemia): 4.1 µM
- TGI (K-562 leukemia): 13.6 µM
- GI50 (EKVX NSCLC): 8.97 µM
- TGI (EKVX NSCLC): 21.5 µM
- GI50 (OVCAR-8 ovarian): 12.5 µM
- TGI (OVCAR-8 ovarian): 25.1 µM
- GI50 (MOLT-4 leukemia): 0.0487 µM
- TGI (MOLT-4 leukemia): 0.152 µM
- GI50 (DU-145 prostate): 13 µM
- TGI (DU-145 prostate): 25.8 µM
- GI50 (UACC-62 melanoma): 0.1 µM
- TGI (UACC-62 melanoma): 1.86 µM
- GI50 (OVCAR-4 ovarian): 7.25 µM
- TGI (OVCAR-4 ovarian): 20.3 µM
- GI50 (HOP-62 NSCLC): 14.7 µM
- TGI (HOP-62 NSCLC): 28 µM
- GI50 (MCF7 breast): 0.318 µM
- TGI (MCF7 breast): 7.21 µM
- GI50 (SF-295 CNS): 7.09 µM
- TGI (SF-295 CNS): 19.8 µM
- GI50 (MDA-MB-468 breast): 2.27 µM
- TGI (MDA-MB-468 breast): 9.06 µM
- GI50 (RXF 393 renal): 2.38 µM
- TGI (RXF 393 renal): 8.18 µM
- GI50 (PC-3 prostate): 7.04 µM
- TGI (PC-3 prostate): 18.7 µM
- GI50 (HCT-116 colon): 0.304 µM
- TGI (HCT-116 colon): 11.7 µM
- GI50 (MDA-MB-231 breast): 9.89 µM
- TGI (MDA-MB-231 breast): 22.3 µM
- GI50 (NCI-H460 NSCLC): 1.71 µM
- TGI (NCI-H460 NSCLC): 14.9 µM
- GI50 (KM12 colon): 2.15 µM
- TGI (KM12 colon): 16.2 µM
- GI50 (U251 glioblastoma): 12.2 µM
- TGI (U251 glioblastoma): 24.7 µM
- GI50 (HL-60(TB) leukemia): 2.21 µM
- TGI (HL-60(TB) leukemia): 4.44 µM
- GI50 (NCI-H522 lung): 3.32 µM
- TGI (NCI-H522 lung): 10.1 µM

From PubChem BioAssay (NCI)
